System: 186277-243-T-J2-PDC multi-cell spheroid viability
Assay: Anticancer human tumor 186277-243-T-J2-PDC patient-derived colon adenocarcinoma cell line growth inhibition [PI3K]
Details: for IC50: curve of first compound; for viability, T/C: stronger effect = lower value
Description: Combinatorial screen of targeted agents with the PI3K inhibitors inavolisib, alpelisib, duvelisib, and copanlisib in multi-cell type tumor spheroids
A high-throughput screen of multi-cell type tumor spheroids was designed to identify active combinations of targeted small molecules and PI3K pathway inhibitors. Complex spheroids include a stromal component modeled by human endothelial cells (HUVEC) and fibroblasts modeled by human mesenchymal stem cells (MSCs). The concentration ranges selected for each drug and investigational agent were based upon clinically achievable concentrations if the clinical Cmax of the agent was known.
Compounds. The drugs and investigational agents: inavolisib (NSC800729), alpelisib (NSC765974), duvelisib (NSC772469), copanlisib (NSC816437), ipatasertib (NSC767898), afuresertib (NSC778305), talazoparib (NSC767125), sapanisertib (NSC764658), selumetinib (NSC741078), tovorafenib (DAY101, NSC766906), vemurafenib (NSC761431), ravoxertinib (NSC781343), sotorasib (NSC818433), MRTX1133 (NSC 836407), abemaciclib (NSC 768073), palbociclib (NSC758247), venetoclax (NSC 766270), SY5609 (NSC837396), enzalutamide (NSC755605), and darolutamide (NSC825331), were obtained from the National Cancer Institute (NCI) Developmental Therapeutics Program Chemical Repository. The FDA-approved anticancer drug set is available from the NCI Developmental Therapeutics Program. […] The stock solutions were prepared in dimethyl sulfoxide (DMSO, Sigma-Aldrich, St. Louis, MO, cat. D2650) at 800-fold the tested concentration and stored at -70 degrees C prior to their use. All drugs and investigational agents were tested over a range starting from a high concentration at or near the clinical Cmax and decreasing in half-log increments. If the clinical Cmax for an agent had not been determined, the highest concentration tested was 10 microM.
Cell Culture. All cells were maintained in an incubator at 37 degrees C and 5% CO2 with 95% humidity. The PDC lines were cultured according to standard operating procedures established by the NCI PDMR (https://pdmr.cancer.gov/sops/default.htm). All PDCs were thawed and cultured in Matrigel-coated flasks prepared with a working solution of 1X Ham's F-12 nutrient mix, without supplementation (Invitrogen, Waltham, MA, cat. 11765054), 100 U/mL penicillin-streptomycin (Invitrogen, cat. 15140122), and 2.5% Matrigel (Corning Inc., Corning, NY, cat. 354248) for the first three passages. The 354836-022-R-J1-PDC, 475296-252-R-J1-PDC, and 997726-040-R-J2-PDC lines were cultured in 6A media, which includes advanced DMEM/F-12 (Thermo Fisher Scientific, cat. 12634028), 10 mM HEPES (Thermo Fisher Scientific, cat. 15630080), 1X GlutaMAX supplement (Thermo Fisher Scientific, cat. 35050061), 0.1 mg/mL primocin (InvivoGen, San Diego, CA, cat. ant-pm-2), 10% defined fetal bovine serum, heat inactivated (HyClone Laboratories Inc., Logan, UT, cat. SH30070.03HI), 50% L-WRN conditioned media (ATCC, cat. CRL-3276), 1.25 mM N-Acetyl-L-cysteine (Sigma-Aldrich, cat. A9165), 10 mM nicotinamide (Sigma-Aldrich, cat. N0636), 1X B-27 supplement (Thermo Fisher Scientific, cat. 17504044), 1X N-2 supplement (Thermo Fisher Scientific, cat. 17502048), and 10 microM Y-27632 dihydrochloride (Tocris Bioscience, Bristol, United Kingdom, cat. 1254). The 624824-186-R-J2-PDC line was cultured in 6C/Colon 1B media, which includes all 6A media components plus 50 ng/mL human EGF recombinant protein (Thermo Fisher Scientific, cat. PHG0311). […]
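Note: spheroids exposed to compounds for seven days before viability reading.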
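Throughout, for viability, T/C: 100% = DMSO vehicle control viability.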

Compound `Cn1ncc(Cl)c1-c1cc(C(=O)NC(CN)Cc2cccc(F)c2)sc1Cl` (configuration not stated) + Cc1nc(NC(=O)N2CCCC2C(N)=O)sc1-c1ccnc(C(C)(C)C(F)(F)F)c1 has an IC50 (second compound 0.0316 µM) of 960 nM, an IC50 (second compound 0.1 µM) of 253 nM and an IC50 (second compound 0.316 µM) of 225 nM. The IC50 (second compound 1 µM) was 157 nM, the IC50 (second compound 3.16 µM) was under 31.6 nM and the IC50 (second compound 10 µM) was under 31.6 nM. The viability, T/C (second compound 0.0316 µM, first compound 0.0316 µM) was 96.2%, the viability, T/C (second compound 0.0316 µM, first compound 0.1 µM) was 87.8% and the viability, T/C (second compound 0.0316 µM, first compound 0.316 µM) was 56.8%. The viability, T/C (second compound 0.0316 µM, first compound 1 µM) was 47.8%, the viability, T/C (second compound 0.0316 µM, first compound 3.16 µM) was 43% and the viability, T/C (second compound 0.0316 µM, first compound 10 µM) was 17.3%. The viability, T/C (second compound 0.1 µM, first compound 0.0316 µM) was 112%, the viability, T/C (second compound 0.1 µM, first compound 0.1 µM) was 68% and the viability, T/C (second compound 0.1 µM, first compound 0.316 µM) was 43.4%. For the same compound, the viability, T/C (second compound 0.1 µM, first compound 1 µM) was 32.4%, the viability, T/C (second compound 0.1 µM, first compound 3.16 µM) was 33.2% and the viability, T/C (second compound 0.1 µM, first compound 10 µM) was 11.6%. For the same compound, the viability, T/C (second compound 0.316 µM, first compound 0.0316 µM) was 114%, the viability, T/C (second compound 0.316 µM, first compound 0.1 µM) was 66.2% and the viability, T/C (second compound 0.316 µM, first compound 0.316 µM) was 43%. For the same compound, the viability, T/C (second compound 0.316 µM, first compound 1 µM) was 26.3%, the viability, T/C (second compound 0.316 µM, first compound 3.16 µM) was 25.3% and the viability, T/C (second compound 0.316 µM, first compound 10 µM) was 9.1%. For the same compound, the viability, T/C (second compound 1 µM, first compound 0.0316 µM) was 95%, the viability, T/C (second compound 1 µM, first compound 0.1 µM) was 65.7% and the viability, T/C (second compound 1 µM, first compound 0.316 µM) was 25%. The viability, T/C (second compound 1 µM, first compound 1 µM) was 14.7%, the viability, T/C (second compound 1 µM, first compound 3.16 µM) was 17.2% and the viability, T/C (second compound 1 µM, first compound 10 µM) was 3.49%. The viability, T/C (second compound 3.16 µM, first compound 0.0316 µM) was 48.7%, the viability, T/C (second compound 3.16 µM, first compound 0.1 µM) was 33.7% and the viability, T/C (second compound 3.16 µM, first compound 0.316 µM) was 19.6%. For the same compound, the viability, T/C (second compound 3.16 µM, first compound 1 µM) was 13.7%, the viability, T/C (second compound 3.16 µM, first compound 3.16 µM) was 8.89% and the viability, T/C (second compound 3.16 µM, first compound 10 µM) was 1.65%. It also gave a viability, T/C (second compound 10 µM, first compound 0.0316 µM) of 15.7%, a viability, T/C (second compound 10 µM, first compound 0.1 µM) of 8.3% and a viability, T/C (second compound 10 µM, first compound 0.316 µM) of 6.89%. It also gave a viability, T/C (second compound 10 µM, first compound 1 µM) of 6.6%, a viability, T/C (second compound 10 µM, first compound 3.16 µM) of 3.36% and a viability, T/C (second compound 10 µM, first compound 10 µM) of 3.79%.
